35 compounds from patent US10752640B2, “Compounds active towards bromodomains” (NUEVOLUTION A/S, priority 2014, dated 2020) can be followed below.

Each structure is given as a SMILES string. pIC50: −log10 of the molar value.

What is called pIC50 is the negative decadic logarithm of the IC50, by convention in mol/L. Read a high pIC50 as a low IC50.

The assay deals with BRD4 protein (Homo sapiens, UniProt O60885). The assay can be described thus: FRET assay, half maximal inhibitory concentration (IC50). Format: binding. Conditions: BRD4 protein 50 nM, Biotin-H4KAc4 peptide 12.5 nM; List of Classification. Here is the method:
The compounds were biologically evaluated by determining the half maximal inhibitory concentration (IC50) by FRET assay. The IC50 is a measure of the effectiveness of a substance in inhibiting a specific biological or biochemical function.
For IC50 determinations, dose-response curves were generated, using a top concentration of 50 μM compound in 12.5% DMSO, followed by 10-fold dilutions in 12.5% DMSO. The composition of the reaction buffer was 50 mM HEPES, pH 7.5; 100 mM NaCl, 0.05% CHAPS.
The reaction was run in a final volume of 25 μl. The BRD4 protein (16.5 μl) was added to wells of 384w white Optiplates (Perkin Elmer) (50 nM final concentration) and 1 μl of compound dilution of DMSO control. Incubation time was 30 minutes at room temperature. In the next step, 2.5 μl Biotin-H4KAc4 peptide (Millipore 13-379) was added to the wells (final concentration was 12.5 nM), and the plates were incubated for 30 minutes at room temperature. Detection was performed by addition of 5 μl of a mix of mAb GST-XL665 (Cisbio 61GSTXLB) (10 nM final concentration) and Streptavidin Cryptate (Cisbio 610SAKLB) (2.4 nM final conc.) in reaction buffer with 0.4M KF and 0.05% BSA). The plates were incubated for one hour prior to reading on an Envision reader (Perkin Elmer)
Data was analyzed using GraphPad Prism, and IC50 data was obtained using non-linear regression curve fit using log(inhibitor) vs response (variable slope). All compounds were considered active although classified (according to the half maximal inhibitory concentration (IC50) by FRET assay) as follows: […]
`Cc1cc(O)nc2ccc(NC(=O)c3nc(-c4nnn[nH]4)ccc3N3CCCC3)cc12` [Compound-33, N-(2-hydroxy-4-methylquinolin-6-yl)-3-(pyrrolidin-1-yl)-6-(1H-tetrazol-5-yl) picolinamide] had a pIC50 of 5.00 to 6.00.
Compound `Cc1cc(O)nc2ccc(NC(=O)c3cc(CN4CCOCC4)ccc3N3CCCC3=O)cc12` [Compound-34, N-(2-hydroxy-4-methylquinolin-6-yl)-5-(morpholinomethyl)-2-(2-oxopyrrolidin-1-yl) benzamide] gave a pIC50 of 6.00 to 6.30.
Compound `Cc1cc(O)nc2ccc(NC(=O)c3nc(C#N)ccc3N3CCCC3)cc12` [Compound-35, 6-Cyano-N-(2-hydroxy-4-methylquinolin-6-yl)-3-(pyrrolidin-1-yl)picolinamide] showed a pIC50 of 6.00 to 6.30.
Under `Cc1cc(O)nc2ccc(NC(=O)c3nc(CN)ccc3N3CCCC3)cc12` [Compound-36, 6-(aminomethyl)-N-(2-hydroxy-4-methylqunolin-6-yl)-3-(pyrrolidin-1-yl)picolinamide] stands 5.00 to 6.00.
`Cc1cc(O)nc2ccc(NC(=O)c3nc(CN(C)C)ccc3N3CCCC3)cc12` [Compound-37] gave a pIC50 of 5.00 to 6.00.
Take `CC(=O)c1ccc(N2CCCC2)c(C(=O)Nc2ccc3nc(O)cc(C)c3c2)n1` [Compound-38, 6-acetyl-N-(2-hydroxy-4-methylquinolin-6-yl)-3(pyrrolidin-1-yl)picolinamide]: the pIC50 is over 6.70.
The compound `Cc1cc(O)nc2ccc(NC(=O)c3nc(C(C)O)ccc3N3CCCC3)cc12` (centres unmarked) [Compound-39] had a pIC50 of 6.00 to 6.30.
Under `Cc1cc(O)nc2ccc(NC(=O)c3nc(C(N)=O)ccc3N3CCCC3)cc12` [Compound-40, N2-(2-hydroxy-4-methylquinolin-6-yl)-3-(pyrrolidin-1-yl)pyridine-2,6-dicarboxamide] stands 6.30 to 6.70; under `Cc1cc(O)nc2ccc(NC(=O)c3cc(C#N)ncc3N3CCCC3)cc12` [Compound-41, 2-Cyano-N-(2-hydroxy-4-methylquinolin-6-yl)-5-(pyrrolidin-1-yl) isonicotinamide], over 6.70.
As for `CC(=O)c1cc(C(=O)Nc2ccc3nc(O)cc(C)c3c2)c(N2CCCC2)cn1` [Compound-42, 2-acetyl-N-(2-hydroxy-4-methylquinolin-6-yl)-5 (pyrrolidin-1-yl)isonicotinamide], the figure is over 6.70.
Under `Cc1cc(O)nc2ccc(NC(=O)c3cc(C(C)O)ccc3N3CCCC3)cc12` (centres unmarked) [Compound-46, N-(2-hydroxy-4-methylquinolin-6-yl)-5-(1-hydroxyethyl)-2-(pyrrolidin-1-yl) benzamide] stands over 6.70; under `COC(C)c1ccc(N2CCCC2)c(C(=O)Nc2ccc3nc(O)cc(C)c3c2)c1` (centres unmarked) [Compound-47, N-(2-hydroxy-4-methylquinolin-6-yl)-5-(1-methoxyethyl)-2-(pyrrolidin-1-yl) benzamide], over 6.70; under `COCc1ccc(N2CCCC2CN(C)C)c(C(=O)Nc2ccc3nc(O)cc(C)c3c2)c1` (centres unmarked) [Compound-48, 2-(2-((dimethylamino)methyl)pyrrolidin-1-yl)-N-(2-hydroxy-4-methylquinolin-6-yl)-5-(methoxymethyl)benzamide], 6.30 to 6.70.
`Cc1cc(O)nc2ccc(NC(=O)c3cc(COC(C)C)ccc3N3CCCC3)cc12` [Compound-50, N-(2-hydroxy-4-methylquinolin-6-yl)-5-(isopropoxymethyl)-2-(pyrrolidin-1-yl) benzamide] showed a pIC50 of over 6.70.
Under `Cc1cc(O)nc2ccc(NC(=O)c3cc(OC(F)(F)F)ccc3N3CCCC3CN(C)C)cc12` (centres unmarked) [Compound-51, 2-(2-((dimethylamino)methyl)pyrrolidin-1-yl)-N-(2-hydroxy-4-methylquinolin-6-yl)-5-(trifluoromethoxy) benzamide] stands over 6.70.
Turning to `Cc1cc(O)nc2ccc(NC(=O)c3cc(N)ccc3N3CCOCC3)cc12` [Compound-54, 5-amino-N-(2-hydroxy-4-methyl-6-quinolyl)-2-morpholino-benzamide], the pIC50 was 6.00 to 6.30.
Under `Cc1cc(O)nc2ccc(NC(=O)c3cc(NCC(N)=O)ccc3N3CCOCC3)cc12` [Compound-55, 5-[(2-amino-2-oxo-ethyl)amino]-N-(2-hydroxy-4-methyl-6-quinolyl)-2-morpholino-benzamide] stands 6.30 to 6.70.
In turn, `Cc1cc(O)nc2ccc(NC(=O)c3cc(S(=O)(=O)N4CCOCC4)ccc3N3CCOCC3)cc12` [Compound-68, N-(2-hydroxy-4-methyl-6-quinolyl)-2-morpholino-5-morpholinosulfonyl-benzamide] showed a pIC50 of over 6.70.
Under `COc1ccccc1C(=O)Nc1ccc2nc(O)cc(C)c2c1` [Compound-69, N-(2-hydroxy-4-methyl-6-quinolyl)-2-methoxy-benzamide] stands under 5.00; under `Cc1cc(O)nc2ccc(NC(=O)c3cc(S(N)(=O)=O)ccc3N3CCOCC3)cc12` [Compound-70, N-(2-hydroxy-4-methyl-6-quinolyl)-2-morpholino-5-sulfamoyl-benzamide], over 6.70.
Under `Cc1cc(O)nc2ccc(NC(=O)c3cc(S(=O)(=O)N(C)C)ccc3N3CCCC3)cc12` [Compound-72, 5-(dimethylsulfamoyl)-N-(2-hydroxy-4-methyl-6-quinolyl)-2-pyrrolidin-1-yl-benzamide] stands over 6.70; under `Cc1cc(O)nc2ccc(NC(=O)c3cc(S(=O)(=O)N(C)C)ccc3N3CCOCC3)cc12` [Compound-73, 5-(dimethylsulfamoyl)-N-(2-hydroxy-4-methyl-6-quinolyl)-2-morpholino-benzamide], over 6.70; under `Cc1cc(O)nc2ccc(NC(=O)c3cc(S(=O)(=O)N4CCOCC4)ccc3N3CCCC3)cc12` [Compound-74, N-(2-hydroxy-4-methyl-6-quinolyl)-5-morpholinosulfonyl-2-pyrrolidin-1-yl-benzamide], over 6.70.
With `Cc1cc(O)nc2ccc(NS(=O)(=O)c3cc([N+](=O)[O-])ccc3N3CCOCC3)cc12` [Compound-76, N-(2-hydroxy-4-methyl-6-quinolyl)-2-morpholino-5-nitro-benzenesulfonamide], the pIC50 was 5.00 to 6.00.
Regarding `Cc1cc(O)nc2ccc(NS(=O)(=O)c3cc(N)ccc3N3CCOCC3)cc12` [Compound-77, 5-amino-N-(2-hydroxy-4-methyl-6-quinolyl)-2-morpholino-benzenesulfonamide], the pIC50 was under 5.00.
As for `CN(C)S(=O)(=O)c1ccc(N2CCOCC2)c(C(=O)Nc2ccc3[nH]c(=O)cc(C(F)(F)F)c3c2)c1` [Compound-79, 5-(dimethylsulfamoyl)-2-morpholino-N-[2-oxo-4-(trifluoromethyl)-1H-quinolin-6-yl]benzamide], the figure is 5.00 to 6.00; as for `Cc1cc(O)nc2ccc(NS(=O)(=O)c3cc(S(N)(=O)=O)ccc3N3CCOCC3)cc12` [Compound-80, N3-(2-hydroxy-4-methyl-6-quinolyl)-4-morpholino-benzene-1,3-disulfonamide], under 5.00; as for `Cc1cc(O)nc2ccc(NC(=O)c3cc([N+](=O)[O-])ccc3N3CCCC3)cc12` [Compound-82, N-(2-hydroxy-4-methyl-6-quinolyl)-5-nitro-2-pyrrolidin-1-yl-benzamide], over 6.70.
Under `Cc1cc(O)nc2ccc(NC(=O)c3cc4c(ccn4CC4NCCO4)cc3N3CCCC3)cc12` (centres unmarked) [Compound-84, N-(2-hydroxy-4-methyl-6-quinolyl)-1-(oxazolidin-2-ylmethyl)-5-pyrrolidin-1-yl-indole-6-carboxamide] stands over 6.70; under `Cc1cc(O)nc2ccc(NC(=O)c3cc4[nH]cc(CN(C)C)c4cc3N3CCCC3)cc12` [Compound-85, 3-(dimethylaminomethyl)-N-(2-hydroxy-4-methyl-6-quinolyl)-5-pyrrolidin-1-yl-1H-indole-6-carboxamide], over 6.70; under `Cc1cc(O)nc2ccc(NC(=O)c3cc4c(ccn4CC(N)=O)cc3N3CCCC3)cc12` [Compound-86, 1-(2-amino-2-oxo-ethyl)-N-(2-hydroxy-4-methyl-6-quinolyl)-5-pyrrolidin-1-yl-indole-6-carboxamide], over 6.70.
As for `Cc1cc(O)nc2ccc(NC(=O)c3cc(CN4CCOCC4)cnc3N3CCCC3)cc12` [Compound-87, N-(2-hydroxy-4-methyl-6-quinolyl)-5-(morpholinomethyl)-2-pyrrolidin-1-yl-pyridine-3-carboxamide], the figure is over 6.70.
The compound `Cc1cc(O)nc2ccc(NC(=O)c3cc(CN4CCOCC4)cnc3N3CCC(F)C3)cc12` (centres unmarked) [Compound-88, 2-(3-fluoropyrrolidin-1-yl)-N-(2-hydroxy-4-methyl-6-quinolyl)-5-(morpholinomethyl)pyridine-3-carboxamide] showed a pIC50 of over 6.70.
For `Cc1cc(O)nc2ccc(NC(=O)c3cc(CN4CCOCC4)cnc3N3CCC(O)C3)cc12` (centres unmarked) [Compound-89, N-(2-hydroxy-4-methyl-6-quinolyl)-2-(3-hydroxypyrrolidin-1-yl)-5-(morpholinomethyl)pyridine-3-carboxamide], the pIC50 is over 6.70.
Under `Cc1cc(O)nc2ccc(NC(=O)c3cc(CN4CCOCC4)cnc3N3CCOCC3)cc12` [Compound-90, N-(2-hydroxy-4-methyl-6-quinolyl)-2-morpholino-5-(morpholinomethyl)pyridine-3-carboxamide] stands over 6.70.
